In the METLIN SMRT retention time set (Domingo-Almenara et al. 2019):

Assay: gradient 5% acetonitrile 3 min, to 50% in 2 min, to 85% in 15 min, held 3 min, 100 µL/min
Details: column: Zorbax Extend-C18 2.1 x 50 mm; eluents: water / acetonitrile, 0.1% formic acid
Procedure, shortened: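 A Zorbax Extend-C18 column (2.1 × 50 mm, 1.8 μm) run at 100 μL/min with water and acetonitrile, both containing 0.1% formic acid, separated mixtures of ~100 pure standards. The HPLC was coupled to a quadrupole time-of-flight mass spectrometer operated in positive and negative ionization mode, with dead and dwell volumes of 40 μL and 900 μL. Each retention time was taken from a computationally picked adduct peak that was then manually inspected.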

| RP-LC retention time [s] | SMILES |
| --- | --- |
| 856 | O=C(CCc1ccc2[nH]ccc2c1)N1CCN(c2ccccc2)CC1 |
| 698 | CC(C(=O)NCCc1ccco1)n1c(=O)c(C(F)(F)F)nc2ccccc21 (centres undefined) |
| 1240 | CC(C)Cn1c(=O)c2ccccc2n(Cc2nc(-c3ccc(Cl)cc3)no2)c1=O |
| 1040 | CCNS(=O)(=O)c1cccnc1Nc1ccc(F)c(Cl)c1 |
| 890 | CCC(C)NC(=O)CCn1c(=O)c2ccccc2n2c(=O)n(Cc3ccc(F)cc3)nc12 (centres undefined) |
| 727 | Cc1cccc(NC(=O)N2CCC3(C2)C(=O)Nc2ccccc23)c1 (centres undefined) |
| 817 | COc1ncc(C(=O)Nc2cc(C)cc(C)c2)c(C)n1 |
| 840 | COc1ccc(/C(=N/O)C(c2ccc(OC)cc2)C2C(=O)Oc3ccccc32)cc1 (centres undefined) |
| 805 | Cc1cccc(C(=O)N2CCC3(CC2)NC(=O)c2cc(C)ccc2N3C)c1 |
| 717 | CCn1cc(-c2ccc(Cl)cc2)cc1C(=O)N1CCN(C(C)C)CC1 |
| 919 | Cc1nc(-c2cc(S(=O)(=O)N3CCC(C(=O)N4CCCCCC4)CC3)c(C)s2)no1 |
| 1020 | Cc1noc(C)c1-c1ccc(S(=O)(=O)N2CCCCCC2)cc1 |
| 785 | O=C(CCNc1c(-c2cccc(F)c2)nc2cnccn12)NCc1ccc(Cl)cc1 |
| 979 | COc1ccc(CC(=O)N2CCc3cc(-c4noc(C)n4)ccc32)cc1Cl |
| 596 | COc1ccc2[nH]c(=O)c(CCC(=O)NC3CCN(Cc4ccccc4)CC3)cc2c1 |
| 788 | COc1ccc(CNC(=O)C2=Cc3cccc(OC)c3OC2)cc1OC |
| 877 | Cc1ccc2c(c1)N(Cc1ccccc1C)N=C(C(=O)N1CCOCC1)S2(=O)=O |
| 865 | CC(C)COc1nc2c(c(=O)n(C)c(=O)n2C)n1C |
| 864 | Cc1cccc(Cn2c(=O)n(CCNC(=O)CC(C)(C)C)c3ncccc32)c1 |
| 568 | C=CCNC(=O)c1ccc2[nH]c(C)c(C)c2c1 |
| 906 | Cc1ccc(CNC(=O)C2CCN(S(=O)(=O)c3cc(-c4noc(C)n4)sc3C)CC2)o1 |
| 952 | O=C(NCCCc1ccccc1)c1nc(Cn2c(=O)oc3ccccc32)no1 |
| 612 | Cc1cc(C)c2c(N3CCCC3)nc(C(=O)Nc3ccc(N4CCOCC4)cc3)nc2n1 |

| RP-LC retention time [s] | SMILES |
| --- | --- |
| 570 | CN1CCC(N2CCN(S(=O)(=O)c3ccccc3Cl)CC2)C1=O (centres undefined) |
| 536 | CCCS(=O)(=O)N1C[C@@H](COC)[C@H](c2ccncc2)C1 |
| 833 | CC1CN(c2ccc(Br)cc2)c2nc3c(c(=O)n(CCCO)c(=O)n3C)n2C1 (centres undefined) |
| 636 | O=C1C(c2cccnc2)N(Cc2ccc3c(c2)OCO3)C(=O)CN1c1ccccc1 (centres undefined) |
| 1140 | Cc1cccc(Sc2nccnc2N2CCCC(C(=O)NCCC(C)C)C2)c1 (centres undefined) |
| 690 | O=C(NCCCN1CCCC1=O)c1nc2ccccn2c1-c1ccc(Cl)cc1 |
| 800 | O=C(Nc1cnc(N2CCCCC2)nc1)c1ccsc1 |
| 806 | COc1cccc(N2CCN(c3ccnc(SCC(=O)Nc4ccc(F)c(Cl)c4)n3)CC2)c1 |
| 843 | Cc1cc2c(cc1S(=O)(=O)N1CCCC1C(=O)Nc1ccc(Cl)cc1F)OCC(=O)N2 (centres undefined) |
| 665 | CCn1ccc(C(=O)N2CCC(c3noc(-c4ccncc4)n3)C2)n1 (centres undefined) |
| 655 | CCN(CC)S(=O)(=O)c1ccc2c(c1)N(CC(=O)NCCc1cnc[nH]1)C(=O)C1CCCCN21 (centres undefined) |
| 804 | Cc1ccn2c(NC(=O)COc3ccc(Cl)cc3Cl)c(-c3ccc(F)cc3)nc2c1 |
| 1160 | O=S(c1cc(Cl)cc(Cl)c1O)c1cc(Cl)cc(Cl)c1O |
| 648 | CC(=O)N1CCC(C(=O)N2CCCN(c3cc(-c4ccc(Cl)cc4)[nH]n3)CC2)CC1 |
| 949 | O=C(c1ccccc1)C(c1ccccc1)C1(O)C(=O)Nc2c(Cl)cc(Cl)cc21 (centres undefined) |
| 786 | CCCCN(C)C(=O)c1ccc2c(c1)nc1n2CCN(C2CCCCC2)C1=O |
| 846 | Cc1cc(C)cc(NC(=O)CN2C(=O)CC(C)S(=O)(=O)c3ccccc32)c1 (centres undefined) |
| 723 | O=C(NCc1ccc(F)c(Cl)c1)c1cn2ccccc2n1 |
| 985 | CCN(CC)C(=O)Cn1c(=O)c2cnc(-c3ccc(C)cc3)nc2n(C)c1=O |
| 976 | CC(C)c1ccc(CNC(=O)c2ccc3c(c2)N(C)C2CCCCN2C3=O)cc1 (centres undefined) |
| 942 | Cc1cc2c(c(=O)n(-c3ccc(F)cc3)c(=O)n2CC(=O)Nc2ccc(C(F)(F)F)cc2)n1C |
| 781 | Cc1ccc(CCNC(=O)C2CCN(S(=O)(=O)c3ccc4c(c3)CCCC(=O)N4)CC2)cc1 |
| 958 | O=C(NCCC1=CCCCC1)c1ccc2ccnc(N3CCN(c4ccccc4)CC3)c2c1 |

| RP-LC retention time [s] | SMILES |
| --- | --- |
| 1080 | CC(C)CC(=O)Nc1ccc(S(=O)(=O)N2CCCC2c2nc(-c3ccccc3)no2)cc1 (centres undefined) |
| 951 | CCOc1ccc(S(=O)(=O)N2CCC(C(=O)N3CCCCCC3)CC2)cc1C |
| 1180 | CSc1ccccc1NC(=O)c1nnn(-c2cc(Cl)ccc2C)c1C |
| 972 | CC1Cc2ccccc2N1C(=O)c1ccc(Cl)cc1 (centres undefined) |
| 588 | CCCN1C(=O)C(CC(=O)NCCN(C)C)Sc2ncccc21 (centres undefined) |
| 1190 | CCc1ccc(-c2noc(Cn3c(=O)n(Cc4ccc(OC)cc4)c(=O)c4sccc43)n2)cc1 |
| 683 | COC(=O)c1ccc(CSc2nnc(CNC(=O)c3ccccc3)o2)o1 |
| 668 | COc1ccc(CNC(=O)Cn2nc3c4sc(N(C)C)nc4ncn3c2=O)cc1 |
| 1070 | CCOc1ccc(-c2nn3c(Cc4ccc(OC)cc4)nnc3s2)cc1 |
| 621 | NC(=O)c1cccc2[nH]c(-c3ccc(C4CCCN4)cc3F)nc12 (centres undefined) |
| 726 | Cc1ccc(-c2nc3nc(C)cc(C)n3c2Nc2ccccc2)cc1 |
| 681 | O=C(CN1C(=O)c2ccccc2C1=O)N1CCCN(c2nc3ncccc3o2)CC1 |
| 629 | O=C(Nc1ccc(-c2cn3cccnc3n2)cc1)c1cccs1 |
| 655 | COc1ccc(-n2c(Cc3cccn3C)nnc2SCC(=O)NCC2CCCO2)cc1 (centres undefined) |
| 849 | CCn1nccc1C(=O)N1CCCC1c1cccc(C)c1 (centres undefined) |
| 808 | CCn1ccc2sc(C)c(C(=O)NC(C)c3ccc(F)cc3)c2c1=O (centres undefined) |
| 887 | CCC(CC)C(=O)N1CCN(c2ccc(=O)n(-c3ccc(Cl)cc3)n2)CC1 |
| 848 | COc1ccc(S(=O)(=O)N2CCN(c3cc(C)nc(NC4CCCCC4)n3)CC2)cc1C |
| 861 | CCN(Cc1ccccc1)C(=O)Cn1nc2c(N3CCC(C)CC3)nccn2c1=O |
| 871 | CCOC(=O)c1cnn(-c2ccc(Cl)nn2)c1C |
| 689 | CCC(C)(C)N=C(NC#N)Nc1cccnc1 |
| 733 | CCCC(NC(=O)c1ccc(OCC)c(OCC)c1)C(=O)Nc1nc2ccccc2[nH]1 (centres undefined) |
| 648 | COCc1cn(CC2CCCN(Cc3cn(C(C)C)c4ccc(OC)cc34)C2)nn1 (centres undefined) |

| RP-LC retention time [s] | SMILES |
| --- | --- |
| 929 | C=CCN1C(=O)C2(c3cc(Br)ccc31)c1[nH]c3ccccc3c1CCN2C(C)=O (centres undefined) |
| 791 | O=C(c1ccc(Cl)cc1)N(CC1CCOC1)C1CC1 (centres undefined) |
| 772 | COC(=O)c1ccc2c(=O)n(Cc3ccc(F)cc3)c(N3CCN(c4ccccn4)CC3)nc2c1 |
| 707 | CC1(C)CC(=O)c2cn(-c3ccc(F)cc3)c(=O)c(C(=O)Nc3cccnc3)c2C1 |
| 862 | O=C(CC1(O)C(=O)Nc2c(Cl)cc(Cl)cc21)c1cccc2ccccc12 (centres undefined) |
| 600 | Cn1ncc2c(N3CCSCC3)nc(C(=O)N3CCN(Cc4ccccc4)CC3)nc21 |
| 599 | Cn1nc(-c2ccccc2)cc1N |
| 738 | CC(=O)N1CCC2(CC1)OC(=O)C(C)=C2C(=O)NCCC1=CCCCC1 |
| 875 | Cc1ccc(-n2nc(N3CCCC(C(=O)NCc4ccc5c(c4)OCO5)C3)ccc2=O)cc1Cl (centres undefined) |
| 1180 | COc1ccc(-c2csc(NC(=O)CSc3nc4c(cc3C#N)CCCC4)n2)cc1 |
| 893 | O=C(c1sc2cccc(F)c2c1Cl)N1CCN(c2ncccn2)CC1 |
| 836 | Cc1ccc(Nc2c(-c3ccc(Cl)cc3)nc3ccc(C)cn23)cc1 |
| 726 | CC12CC(c3ccccc3O1)C(C(=O)N1CCCCC1)C(=O)N2 (centres undefined) |
| 922 | Cc1ccsc1C(=O)N1CCC2(CC1)N=C(c1cccc(Br)c1)NO2 |
| 898 | COc1ccccc1NC(=O)N1CCCC(C)(C(=O)NCc2ccc(C)cc2)C1 (centres undefined) |
| 839 | O=C(Cc1cccs1)N1CCc2[nH]nc(-c3ccccc3)c2C1 |
| 664 | Cn1c(CN2CCN(C(=O)c3ccco3)CC2)nc2cc(NC(=O)C3CCCCC3)ccc21 |
| 741 | Cc1ccc(NC(=O)C2CCCN(C(=O)C3Sc4ccccc4NC3=O)C2)cc1 (centres undefined) |
| 936 | N#Cc1ccc(C(=O)OCc2nc3ccccc3s2)cc1 |
| 1030 | CCc1cccc(NC(=O)N2CCc3cn(CCOC)c4cccc(c34)C2)c1 |
